pKd: −log10 of the molar value. Read-outs that look alike come from different tables or passages of the source.

The test system of assay [1] is λD-Acid:λD-Base association. Description: Titration of λD-Acid:λD-Base phage association by free competitors (loss of double resistant multilysogen formation). The format is binding. The conditions noted are these: for concentration found to inhibit the λD-Acid:λD-Base interaction: free amino acid; for cross-inhibition of λD-Acid:λD-Base: non-partner free proteins; for IC50, inhibition of Acid/Base association: MOI of 0.0025, aptamer 0.001 μM to 5 μM, FIG. 6; for pKd: free synthetic peptide competing with aptamer interaction, read-out: apparent KD (concentration of free peptide that results in an IC50). The method, then: Lambda display phages are used to co-infect cells at an MOI of 0.0025. In the presence of increasing concentrations of the Acidic (triangles) or Basic (square) Aptamer (0.001 μM to 5 μM), titration of Acid/Base association is scored by the loss of double resistant multilysogen formation. The point representing the maximum number of lysogens for this given MOI.
(§1) Display phages are assayed for their ability to associate with other phages bearing a potential binding partner, with a non-binding partner and with a non-display D vector phage (i.e. λA2 and λA3). The production of double antibiotic resistant (Cml^r/Kan^r) multilysogen E. coli LE392 is used to mark positive fusion D display protein-protein interaction. First, the phages are combined to yield a chosen MOI (a typical initial range is 0.002-0.04), and allowed to associate for 5 minutes at room temperature (RT) prior to dilution with 220 uL of Salted Association Buffer (SAB; 20 mM Tris.HCLpH7.4, 10 mM CaCl2, 10 mM MgCl2 and 100 mM NaCl). After 10 minutes at room temperature, 1×10^8 of fresh log-phase E. coli LE392 recovered in [LB+0.4% maltose+10 mM CaCl2] is added. Phage-phage association, co-infection and antibiotic gene expression are allowed to proceed for 45 min-1 h at RT, followed by plating on agar supplemented with 10^ug/mL Cml+30^ug/mL Kan. Plates are incubated overnight at 32° C. for lysogen formation.

In assay [2] the test system is λD-CUE:λD-Ubiquitin association. Description: Titration of λD-CUE:λD-Ubiquitin phage association by free proteins (loss of double resistant multilysogen formation). It counts as binding. The conditions noted are these: for titration of λD-CUE:λD-Ubiquitin by non-partner peptides: acidic or basic aptamers. The method, then: Lambda display phages are used to co-infect cells at an MOI of 0.04. In the presence of increasing concentrations of the wtUbiquitin (diamonds), wt CUE (squares) or mutant CUEM419D (triangles) protein is added to the phage pair, and positive λD-CUE:λD-Ubiquitin association is scored by the loss of double resistant multilysogen formation. The results are tabulated as the number of colonies counted, with the point representing the maximum number of lysogens for this given MOI.
as §1

The subject of a further assay is E. coli LE392 cells. Description: Protein association assay: lysogen formation after infection with vector or display phages. It counts as cell-based. The conditions noted are these: single input phage, MOI 0.1. The method, then: as §1
The next assay has as its target T1, CUE (Saccharomyces cerevisiae, UniProt P54787).
T1 construct: The CUE domain (50 amino acid residues), as characterized by the conserved MFP and LL motifs
T1 sequence (P54787 408-451 limits assumed): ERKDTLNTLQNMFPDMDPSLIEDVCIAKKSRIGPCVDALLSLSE
The conditions noted are these: CUE binds itself via an alpha helix interface; read-out: Kd (dimerization); cited from earlier work.

The next assay addresses monoubiquitin (Homo sapiens, UniProt P0CG47). The conditions noted are these: cited from earlier work.

`N=C(N)NCCC[C@H](N)C(=O)O` [Arginine]: in assay [1], the “concentration found to inhibit the λD-Acid:λD-Base interaction” value turned out to be 4.6 mM.
The same measure, in the same setting: the same measure for `N[C@@H](CCC(=O)O)C(=O)O` [Glutamic acid]: 0.679 mM.
“CUEM419D: non-binding mutant CUE protein (KKIEENERKDTLNTLQNDFPDMDPSLIEDVCIAKKSRIGPCVDALLSLSE)”: in assay [2] (MOI of 0.04, FIG. 7), the “titration point of λD-CUE:λD-Ubiquitin association” value was “no titration point”. The “ability to challenge the λD-CUE:λD-Ubiquitin interaction” value in assay [2] (even at a concentration of 1 mM) is recorded as “unable to challenge”. Also, in assay [1], the “cross-inhibition of λD-Acid:λD-Base” value was “no cross-inhibition”.
Take GEGEGEGE [Acidic Aptamer, [Gly-Glu]4]: the “titration of λD-CUE:λD-Ubiquitin by non-partner peptides” value in assay [2] is listed as “nor is λD-CUE:λD-Ubiquitin titrated”. In assay [1], the “IC50, inhibition of Acid/Base association” value was ~0.01 µM and the pKd was 8.00.
As for GRGRGRGR [Basic Aptamer, [Gly-Arg]4], the “titration of λD-CUE:λD-Ubiquitin by non-partner peptides” value in assay [2] is listed as “nor is λD-CUE:λD-Ubiquitin titrated”. In assay [1], the “IC50, inhibition of Acid/Base association” value is ~0.01 µM and the pKd was 8.00.
Regarding Ubiquitin, in the assay on E. coli LE392 cells, the “Number of Cml^r/Kan^r Cells” value worked out at 0 and the “Number of Kan^r Cells” value is recorded as 3 × 10^6.
“wt CUE: free wild type CUE domain (50 amino acids) of Vsp9p (KKIEENERKDTLNTLQNMFPDMDPSLIEDVCIAKKSRIGPCVDALLSLSE)”: the pKd was 3.00 with CUE; 8.70 in assay [2] (free protein, read-out: apparent KD, competition of λD-Cue:λD-Ubiquitin pair); 5.92 with monoubiquitin (CUE as a dimer (dimericCue:Ubiquitin), read-out: apparent KD, CUE binding Ubiquitin); 4.70 with monoubiquitin (CUE as a monomer, read-out: KD, CUE binding monoubiquitin). Besides, the “cross-inhibition of λD-Acid:λD-Base” value in assay [1] is “no cross-inhibition”.
